Molecular target: T1, αβγXENaC (Xenopus ENaC) (Xenopus laevis, UniProt P51167+P51169+P51171)
T1 sequence (P51167 1-632): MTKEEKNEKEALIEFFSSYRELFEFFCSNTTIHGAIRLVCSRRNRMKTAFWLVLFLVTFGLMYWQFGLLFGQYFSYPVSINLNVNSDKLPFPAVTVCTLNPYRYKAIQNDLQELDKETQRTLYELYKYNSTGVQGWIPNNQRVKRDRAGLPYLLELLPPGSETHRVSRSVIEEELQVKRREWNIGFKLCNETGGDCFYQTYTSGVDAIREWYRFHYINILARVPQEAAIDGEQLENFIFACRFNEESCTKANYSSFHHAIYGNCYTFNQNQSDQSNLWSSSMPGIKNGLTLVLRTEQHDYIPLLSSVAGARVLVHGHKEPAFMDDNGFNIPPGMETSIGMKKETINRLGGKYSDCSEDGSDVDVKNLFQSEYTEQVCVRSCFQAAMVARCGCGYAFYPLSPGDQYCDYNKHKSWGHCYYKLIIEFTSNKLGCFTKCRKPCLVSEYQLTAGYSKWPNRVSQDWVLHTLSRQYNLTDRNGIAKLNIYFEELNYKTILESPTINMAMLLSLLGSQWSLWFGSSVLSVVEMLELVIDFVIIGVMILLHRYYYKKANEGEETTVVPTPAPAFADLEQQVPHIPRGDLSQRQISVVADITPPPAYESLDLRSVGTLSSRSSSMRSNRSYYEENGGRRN
T1 sequence (P51169 1-647): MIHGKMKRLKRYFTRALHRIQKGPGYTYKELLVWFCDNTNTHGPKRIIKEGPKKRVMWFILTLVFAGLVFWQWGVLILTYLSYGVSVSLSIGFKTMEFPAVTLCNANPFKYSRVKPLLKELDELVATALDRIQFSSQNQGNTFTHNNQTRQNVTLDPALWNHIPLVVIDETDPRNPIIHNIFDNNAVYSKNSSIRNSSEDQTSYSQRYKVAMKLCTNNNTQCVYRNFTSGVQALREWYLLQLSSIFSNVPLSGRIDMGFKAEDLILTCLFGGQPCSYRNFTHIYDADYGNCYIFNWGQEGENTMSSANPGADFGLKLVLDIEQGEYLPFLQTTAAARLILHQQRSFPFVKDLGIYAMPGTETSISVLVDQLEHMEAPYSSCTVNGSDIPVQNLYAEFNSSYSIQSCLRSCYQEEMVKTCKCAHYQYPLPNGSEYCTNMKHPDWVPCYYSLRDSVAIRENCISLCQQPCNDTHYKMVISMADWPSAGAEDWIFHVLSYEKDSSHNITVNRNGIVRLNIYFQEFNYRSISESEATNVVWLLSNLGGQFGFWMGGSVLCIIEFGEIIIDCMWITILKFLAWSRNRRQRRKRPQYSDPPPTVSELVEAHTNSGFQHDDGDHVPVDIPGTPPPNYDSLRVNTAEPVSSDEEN
T1 sequence (P51171 1-660): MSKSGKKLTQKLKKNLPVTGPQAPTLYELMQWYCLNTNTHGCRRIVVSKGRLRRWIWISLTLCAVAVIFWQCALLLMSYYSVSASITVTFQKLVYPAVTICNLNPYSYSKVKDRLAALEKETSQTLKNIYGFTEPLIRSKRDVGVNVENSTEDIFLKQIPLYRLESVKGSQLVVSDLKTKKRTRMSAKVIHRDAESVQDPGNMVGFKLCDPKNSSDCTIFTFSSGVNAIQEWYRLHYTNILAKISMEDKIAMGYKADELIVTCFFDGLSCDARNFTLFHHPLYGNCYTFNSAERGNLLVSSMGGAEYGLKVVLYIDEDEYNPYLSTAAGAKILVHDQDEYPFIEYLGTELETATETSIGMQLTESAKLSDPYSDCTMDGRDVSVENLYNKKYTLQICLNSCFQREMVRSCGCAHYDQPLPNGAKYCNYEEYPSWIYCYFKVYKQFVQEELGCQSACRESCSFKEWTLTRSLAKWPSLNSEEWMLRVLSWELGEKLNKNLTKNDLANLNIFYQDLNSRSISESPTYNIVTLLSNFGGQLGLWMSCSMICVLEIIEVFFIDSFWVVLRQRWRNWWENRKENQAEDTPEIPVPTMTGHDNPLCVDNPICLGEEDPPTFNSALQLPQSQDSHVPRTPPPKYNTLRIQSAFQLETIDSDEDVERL
Test: two-electrode voltage clamp of Na+ current in oocytes
Type: cell-based

N=C(N)NC(=O)c1nc(Cl)c(N)nc1N [amiloride]
Ki: 550 ± 30 nM
